Reference: patent US20240415914A1, “Water Dispersible Cannabinoid Compositions” (priority 2021, published 2024)

Experiment: Stability of cannabinoid and Vitamin E components of Beverage 1 (AB White) stored at 8° C. and 21-25° C., LCMSMS over 570 days
Format: physicochemical
Details: for Stability in AB White, 8° C. (content by LCMSMS): beverage stored at 8° C.; for Stability in AB White, 21-25° C. (content by LCMSMS): beverage stored at 21-25° C.
Protocol: The LCMSMS was calibrated for 0-1000 ng/ml cannabinoids with the same resin material used in the preparation of the concentrates. At each time period, 100 ml of beverage was diluted with 10 ml of methanol and injected into the LCMSMS for analysis.

CCCCCc1cc(O)c(C/C=C(\C)CCC=C(C)C)c(O)c1 [CBG, cannabigerol]
Stability in AB White, 8° C. (content by LCMSMS) (day 0): 4.87 µg/mL
Stability in AB White, 8° C. (content by LCMSMS) (day 1): 4.74 µg/mL
Stability in AB White, 8° C. (content by LCMSMS) (day 2): 4.91 µg/mL
Stability in AB White, 8° C. (content by LCMSMS) (day 3): 4.74 µg/mL
Stability in AB White, 8° C. (content by LCMSMS) (day 5): 4.88 µg/mL
Stability in AB White, 8° C. (content by LCMSMS) (day 8): 4.86 µg/mL
Stability in AB White, 8° C. (content by LCMSMS) (day 9): 4.89 µg/mL
Stability in AB White, 8° C. (content by LCMSMS) (day 10): 4.77 µg/mL
Stability in AB White, 8° C. (content by LCMSMS) (day 11): 4.87 µg/mL
Stability in AB White, 8° C. (content by LCMSMS) (day 12): 4.87 µg/mL
Stability in AB White, 8° C. (content by LCMSMS) (day 15): 4.81 µg/mL
Stability in AB White, 8° C. (content by LCMSMS) (day 16): 4.84 µg/mL
Stability in AB White, 8° C. (content by LCMSMS) (day 17): 4.78 µg/mL
Stability in AB White, 8° C. (content by LCMSMS) (day 18): 4.81 µg/mL
Stability in AB White, 8° C. (content by LCMSMS) (day 19): 4.83 µg/mL
Stability in AB White, 8° C. (content by LCMSMS) (day 22): 4.75 µg/mL
Stability in AB White, 8° C. (content by LCMSMS) (day 23): 4.89 µg/mL
Stability in AB White, 8° C. (content by LCMSMS) (day 24): 4.83 µg/mL
Stability in AB White, 8° C. (content by LCMSMS) (day 25): 4.89 µg/mL
Stability in AB White, 8° C. (content by LCMSMS) (day 26): 4.77 µg/mL
Stability in AB White, 8° C. (content by LCMSMS) (day 29): 4.91 µg/mL
Stability in AB White, 8° C. (content by LCMSMS) (day 30): 4.79 µg/mL
Stability in AB White, 8° C. (content by LCMSMS) (day 60): 4.68 µg/mL
Stability in AB White, 8° C. (content by LCMSMS) (day 90): 4.66 µg/mL
Stability in AB White, 8° C. (content by LCMSMS) (day 120): 4.89 µg/mL
Stability in AB White, 8° C. (content by LCMSMS) (day 150): 4.83 µg/mL
Stability in AB White, 8° C. (content by LCMSMS) (day 180): 4.71 µg/mL
Stability in AB White, 8° C. (content by LCMSMS) (day 210): 4.73 µg/mL
Stability in AB White, 8° C. (content by LCMSMS) (day 240): 4.69 µg/mL
Stability in AB White, 8° C. (content by LCMSMS) (day 270): 4.72 µg/mL
Stability in AB White, 8° C. (content by LCMSMS) (day 300): 4.74 µg/mL
Stability in AB White, 8° C. (content by LCMSMS) (day 330): 4.69 µg/mL
Stability in AB White, 8° C. (content by LCMSMS) (day 360): 4.66 µg/mL
Stability in AB White, 8° C. (content by LCMSMS) (day 390): 4.68 µg/mL
Stability in AB White, 8° C. (content by LCMSMS) (day 420): 4.66 µg/mL
Stability in AB White, 8° C. (content by LCMSMS) (day 450): 4.68 µg/mL
Stability in AB White, 8° C. (content by LCMSMS) (day 480): 4.64 µg/mL
Stability in AB White, 8° C. (content by LCMSMS) (day 510): 4.49 µg/mL
Stability in AB White, 8° C. (content by LCMSMS) (day 540): 4.53 µg/mL
Stability in AB White, 8° C. (content by LCMSMS) (day 570): 4.46 µg/mL
Stability in AB White, 21-25° C. (content by LCMSMS) (day 0): 4.87 µg/mL
Stability in AB White, 21-25° C. (content by LCMSMS) (day 1): 4.73 µg/mL
Stability in AB White, 21-25° C. (content by LCMSMS) (day 2): 4.72 µg/mL
Stability in AB White, 21-25° C. (content by LCMSMS) (day 3): 4.75 µg/mL
Stability in AB White, 21-25° C. (content by LCMSMS) (day 5): 4.89 µg/mL
Stability in AB White, 21-25° C. (content by LCMSMS) (day 8): 4.90 µg/mL
Stability in AB White, 21-25° C. (content by LCMSMS) (day 9): 4.79 µg/mL
Stability in AB White, 21-25° C. (content by LCMSMS) (day 10): 4.68 µg/mL
Stability in AB White, 21-25° C. (content by LCMSMS) (day 11): 4.74 µg/mL
Stability in AB White, 21-25° C. (content by LCMSMS) (day 12): 4.88 µg/mL
Stability in AB White, 21-25° C. (content by LCMSMS) (day 15): 4.87 µg/mL
Stability in AB White, 21-25° C. (content by LCMSMS) (day 16): 4.80 µg/mL
Stability in AB White, 21-25° C. (content by LCMSMS) (day 17): 4.80 µg/mL
Stability in AB White, 21-25° C. (content by LCMSMS) (day 18): 4.72 µg/mL
Stability in AB White, 21-25° C. (content by LCMSMS) (day 19): 4.68 µg/mL
Stability in AB White, 21-25° C. (content by LCMSMS) (day 22): 4.68 µg/mL
Stability in AB White, 21-25° C. (content by LCMSMS) (day 23): 4.85 µg/mL
Stability in AB White, 21-25° C. (content by LCMSMS) (day 24): 4.80 µg/mL
Stability in AB White, 21-25° C. (content by LCMSMS) (day 25): 4.86 µg/mL
Stability in AB White, 21-25° C. (content by LCMSMS) (day 26): 4.78 µg/mL
Stability in AB White, 21-25° C. (content by LCMSMS) (day 29): 4.76 µg/mL
Stability in AB White, 21-25° C. (content by LCMSMS) (day 30): 4.73 µg/mL
Stability in AB White, 21-25° C. (content by LCMSMS) (day 60): 4.83 µg/mL
Stability in AB White, 21-25° C. (content by LCMSMS) (day 90): 4.65 µg/mL
Stability in AB White, 21-25° C. (content by LCMSMS) (day 120): 4.59 µg/mL
Stability in AB White, 21-25° C. (content by LCMSMS) (day 150): 4.63 µg/mL
Stability in AB White, 21-25° C. (content by LCMSMS) (day 180): 4.79 µg/mL
Stability in AB White, 21-25° C. (content by LCMSMS) (day 210): 4.75 µg/mL
Stability in AB White, 21-25° C. (content by LCMSMS) (day 240): 4.79 µg/mL
Stability in AB White, 21-25° C. (content by LCMSMS) (day 270): 4.62 µg/mL
Stability in AB White, 21-25° C. (content by LCMSMS) (day 300): 4.67 µg/mL
Stability in AB White, 21-25° C. (content by LCMSMS) (day 330): 4.71 µg/mL
Stability in AB White, 21-25° C. (content by LCMSMS) (day 360): 4.69 µg/mL
Stability in AB White, 21-25° C. (content by LCMSMS) (day 390): 4.70 µg/mL
Stability in AB White, 21-25° C. (content by LCMSMS) (day 420): 4.72 µg/mL
Stability in AB White, 21-25° C. (content by LCMSMS) (day 450): 4.73 µg/mL
Stability in AB White, 21-25° C. (content by LCMSMS) (day 480): 4.46 µg/mL
Stability in AB White, 21-25° C. (content by LCMSMS) (day 510): 4.51 µg/mL
Stability in AB White, 21-25° C. (content by LCMSMS) (day 540): 4.48 µg/mL
Stability in AB White, 21-25° C. (content by LCMSMS) (day 570): 4.47 µg/mL
